US9227852B2, “Apparatus, systems, and methods for water treatment” (McWong Environmental Technology, priority 2008, dated 2016)
Where two headings read alike, the source gives them in different places.

Assays:
[1] = Comparison of treatment methods for removing geosmin from water (Table 4, FIG. 6)
[2] = system: MS2 coliphage; type: cell-based; details: for effect of peroxide addition on virus / MS2 coliphage disinfection: at the ozone and peroxide doses tested, media filtered or microfiltered water
[3] = Comparison of treatment methods for removing MIB from water (Table 4, FIG. 6)
[4] = Bench-scale ozone / AOP treatment of tertiary filtered effluent: Gemifibrozil; details: Ozone Only Mode, ozone dose of less than or equal to 5 mg/l, FIG. 28
[5] = Bench-scale ozone / AOP treatment of tertiary filtered effluent: Ibuprofen; details: Ozone Only Mode
[6] = Destruction of trace organic compounds in waste water: triclosan; design: dose or concentration left out as unconfirmed; details: FIG. 20
Description: (§1) While ozone and ozone/peroxide methods are know to reduce the levels of various organic compounds commonly found in waste water, the efficacy of the present apparatus, systems, and methods for removing nonylphenol (NP), bisphenol-A (BPA), and triclosan (TCS) from waste water was also tested.

[7] = Bench-scale ozone / AOP treatment of tertiary filtered effluent: Estradiol Equivalents (B-screen bioassay); details: Ozone Only Mode, ozone dose of less than or equal to 5 mg/l, FIG. 27
[8] = Bench-scale ozone / AOP treatment of tertiary filtered effluent: Sulfamethoxazole; details: Ozone Only Mode, ozone dose of 5 mg/l, FIG. 33
[9] = Destruction of trace organic compounds in waste water: nonylphenol; design: dose or concentration left out as unconfirmed; details: ozone dose of about, FIG. 20
Description: as §1

[10] = Destruction of trace organic compounds in waste water: bisphenol-A; design: dose or concentration left out as unconfirmed; details: FIG. 20
Description: as §1

[11] = system: E. Coli; experiment: Bench-scale ozone / AOP disinfection of tertiary filtered effluent: E. Coli; type: cell-based; details: Ozone Only Mode, ozone dose of less than or equal to 5 mg/l
[12] = system: total coliform; type: cell-based, coliforms
[13] = Bench-scale ozone / AOP treatment of tertiary filtered effluent: Trimethoprim; details: Ozone Only Mode, ozone dose of 5 mg/l, FIG. 34
[14] = system: poliovirus; type: cell-based
[15] = Bench-scale ozone / AOP treatment of tertiary filtered effluent: Caffeine; details: Ozone Only Mode, ozone dose of 5 mg/l, FIG. 31
[16] = Bench-scale ozone / AOP treatment of tertiary filtered effluent: Fluoxetine; details: Ozone Only Mode, ozone dose of 5 mg/l, FIG. 32
[17] = Bench-scale ozone / AOP treatment of tertiary filtered effluent: Triclosan; details: Ozone Only Mode, ozone dose of 5 mg/l, FIG. 30

OO [Hydrogen peroxide]
Removal (%) Geosmin ([1]; feed rate 1 mg/L): 50%
effect of peroxide addition on virus / MS2 coliphage disinfection ([2]; listed as Peroxide): did not impact disinfection efficacy
effect of peroxide addition on virus / MS2 coliphage disinfection ([2]; listed as hydrogen peroxide): did not interfere
effect of peroxide addition on virus / MS2 coliphage disinfection ([2]; listed as peroxide): did not significantly affect disinfection
Removal (%) MIB ([3]; feed rate 1 mg/L): 72%

O=[O+][O-] [Ozone]
maximum removal of Gemifibrozil [4]: > 99%
removal of Ibuprofen ([5]; ozone dose of 5 mg/l, FIG. 29): ~77%
maximum removal of Ibuprofen ([5]; ozone dose of less than or equal to 10 mg/l): > 98%
reduction of the levels of TCS [6]: substantially reduce
reduction in geosmin [1]: ~40%
Removal (%) Geosmin ([1]; feed rate 2.5 mg/L): 94%
Log Reduction of MS2 as a function of ozone dose (equation 2) [2]: 0.4045×Ozone Dose+0.1823
contact time sufficient to achieve a 6.5-log disinfection of MS2 coliphage [2]: about 10 seconds
disinfection of MS2 coliphage achieved [2]: 6.5 log
ozone dose required to achieve a 6.5-log disinfection of MS2 coliphage [2]: greater than 5 ppm
ozone required to achieve a 6.5-log disinfection of MS2 coliphage, relative to media-filtered water [2]: slightly lower
maximum removal of Estradiol Equivalents [7]: > 97%
maximum removal of Sulfamethoxazole [8]: > 99.9%
reduction of the levels of NP [9]: substantially reduce
reduction of the levels of BPA [10]: substantially reduce
Removal (%) MIB ([3]; feed rate 2.5 mg/L): 77%
reduction in MIB ([3]; ozone 3 mg/L, FIG. 6): ~40%
log reduction of E. Coli [11]: greater than 4 log
E. Coli after disinfection (below the detection limit) ([11]; untreated 12,000 organism/100 ml, FIG. 37): < 1 organism/100 ml
levels of coliforms after treatment [12]: non-detectable
ozone dose at which non-detectable levels of total coliform were achieved [12]: 4.5 mg/L
total coliform after treatment [12]: less than 2.2 MPN/100 mL
maximum removal of Trimethoprim [13]: > 99%
Log Reduction of Poliovirus as a function of ozone dose (equation 1) [14]: 0.3427×Ozone Dose−0.3621
disinfection of poliovirus corresponding to the 6.5-log disinfection of MS2 coliphage [14]: 5 log
maximum removal of Caffeine [15]: > 96%
maximum removal of Fluoxetine [16]: > 97%
maximum removal of Triclosan [17]: > 76%
